Assay results published in US8729113B2 (Hoffmann-La Roche Inc., priority 2008, dated 2014).

Molecular target: TAAR1 (Mus musculus (Mouse), UniProt Q923Y8)
Experiment: Radioligand binding assay on TAAR1 (membranes of stably transfected HEK293 cells)
Settings: competition with [3H]-rac-2-(1,2,3,4-tetrahydro-1-naphthyl)-2-imidazoline, 4° C., 30 min
Procedure: For the construction of expression plasmids the coding sequences of human, rat and mouse TAAR 1 were amplified from genomic DNA essentially as described by Lindemann et al.. The Expand High Fidelity PCR System (Roche Diagnostics) was used with 1.5 mM Mg^2+ and purified PCR products were cloned into pCR2.1—TOPO cloning vector (Invitrogen) following the instructions of the manufacturer. PCR products were subcloned into the pIRESneo2 vector (BD Clontech, Palo Alto, Calif.), and expression vectors were sequence verified before introduction in cell lines.
HEK293 cells (ATCC # CRL-1573) were cultured essentially as described Lindemann et al. (2005). For the generation of stably transfected cell lines HEK293 cells were transfected with the pIRESneo2 expression plasmids containing the TAAR coding sequences (described above) with Lipofectamine 2000 (Invitrogen) according to the instructions of the manufacturer, and 24 hrs post transfection the culture medium was supplemented with 1 mg/ml G418 (Sigma, Buchs, Switzerland). After a culture period of about 10 d clones were isolated, expanded and tested for responsiveness to trace amines (all compounds purchased from Sigma) with the cAMP Biotrak Enzyme immunoassay (EIA) System (Amersham) following the non-acetylation EIA procedure provided by the manufacturer. […] Membrane Preparation and Radioligand Binding
Cells at confluence were rinsed with ice-cold phosphate buffered saline without Ca^2+ and Mg^2+ containing 10 mM EDTA and pelleted by centrifugation at 1000 rpm for 5 min at 4° C. The pellet was then washed twice with ice-cold phosphate buffered saline and cell pellet was frozen immediately by immersion in liquid nitrogen and stored until use at −80° C. Cell pellet was then suspended in 20 ml HEPES-NaOH (20 mM), pH 7.4 containing 10 mM EDTA, and homogenized with a Polytron (PT 3000, Kinematica) at 10,000 rpm for 10 s. The homogenate was centrifuged at 48,000×g for 30 min at 4° C. and the pellet resuspended in 20 ml HEPES-NaOH (20 mM), pH 7.4 containing 0.1 mM EDTA (buffer A), and homogenized with a Polytron at 10,000 rpm for 10 s. The homogenate was then centrifuged at 48,000×g for 30 min at 4° C. and the pellet resuspended in 20 ml buffer A, and homogenized with a Polytron at 10,000 rpm for 10 s. Protein concentration was determined by the method of Pierce (Rockford, Ill.). The homogenate was then centrifuged at 48,000×g for 10 min at 4° C., resuspended in HEPES-NaOH (20 mM), pH 7.0 including MgCl2 (10 mM) and […] homogenized with a Polytron at 10,000 rpm for 10 s.
Binding assay was performed at 4° C. in a final volume of 1 ml, and with an incubation time of 30 min. The radioligand [^3H]-rac-2-(1,2,3,4-tetrahydro-1-naphthyl)-2-imidazoline was used at a concentration equal to the calculated Kd value of 60 nM to give a bound at around 0.1% of the total added radioligand concentration, and a specific binding which represented approximately 70-80% of the total binding. Non-specific binding was defined as the amount of [^3H]-rac-2-(1,2,3,4-tetrahydro-1-naphthyl)-2-imidazoline bound in the presence of the appropriate unlabelled ligand (10 μM). Competing ligands were tested in a wide range of concentrations […]. […] Each experiment was performed in duplicate. All incubations were terminated by rapid filtration through UniFilter-96 plates (Packard Instrument Company) and glass filter GF/C, pre-soaked for at least 2 h in polyethylenimine 0.3%, and using a Filtermate 96 Cell Harvester (Packard Instrument Company). The tubes and filters were then washed 3 times with 1 ml aliquots of cold buffer B. Filters were not dried and soaked in Ultima gold (45 μl/well, Packard Instrument Company) and bound radioactivity was counted by a TopCount Microplate Scintillation Counter (Packard Instrument Company).

Chain of TAAR1 (Q923Y8 whole entry): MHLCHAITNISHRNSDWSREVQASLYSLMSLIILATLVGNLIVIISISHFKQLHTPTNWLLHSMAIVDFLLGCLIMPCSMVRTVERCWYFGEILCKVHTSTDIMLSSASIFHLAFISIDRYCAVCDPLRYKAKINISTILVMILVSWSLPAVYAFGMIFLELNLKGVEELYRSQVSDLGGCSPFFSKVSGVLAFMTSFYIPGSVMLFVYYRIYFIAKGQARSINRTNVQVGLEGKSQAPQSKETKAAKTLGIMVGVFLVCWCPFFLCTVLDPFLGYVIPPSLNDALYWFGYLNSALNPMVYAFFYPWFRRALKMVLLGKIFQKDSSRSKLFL

SMILES | Ki [µM]
C[Si](C)(CC[C@H]1COC(N)=N1)c1cccc(Cl)c1 [Example 61, (S)-4-{2-[(3-Chloro-phenyl)-dimethyl-silanyl]-ethyl}-4,5-dihydro-oxazol-2-ylamine] | 0.0055
N#Cc1cccc(OCC[C@H]2COC(N)=N2)c1 [Example 63, 3-[2-((S)-2-Amino-4,5-dihydro-oxazol-4-yl)-ethoxy]-benzonitrile] | 0.001
C[C@@H](C[C@H]1COC(N)=N1)Oc1ccc(F)cc1 [Example 64] | 0.0076
C[Si](C)(CC[C@H]1COC(N)=N1)c1ccc(Cl)cc1 [Example 67, (S)-4-{2-[(4-Chloro-phenyl)-dimethyl-silanyl]-ethyl}-4,5-dihydro-oxazol-2-ylamine] | 0.0046
C[C@@H](C[C@H]1COC(N)=N1)Oc1cccc(Cl)c1 [Example 68, (S)-4-[(S)-2-(3-Chloro-phenoxy)-propyl]-4,5-dihydro-oxazol-2-ylamine] | 0.0012
C[C@@H](C[C@H]1COC(N)=N1)Oc1ccc(F)c(F)c1 [Example 69, (S)-4-[(S)-2-(3,4-Difluoro-phenoxy)-propyl]-4,5-dihydro-oxazol-2-ylamine] | 0.008
C[C@@H](C[C@H]1COC(N)=N1)Oc1ccc(Cl)c(F)c1 [Example 70, (S)-4-[(S)-2-(4-Chloro-3-fluoro-phenoxy)-propyl]-4,5-dihydro-oxazol-2-ylamine] | 0.0036
C[C@@H](C[C@H]1COC(N)=N1)Oc1ccc(Br)cc1 [Example 71, (S)-4-[(S)-2-(4-Bromo-phenoxy)-propyl]-4,5-dihydro-oxazol-2-ylamine] | 0.0024
C[C@@H](C[C@H]1COC(N)=N1)Oc1ccc(F)c(Cl)c1 [Example 72, (S)-4-[(S)-2-(3-Chloro-4-fluoro-phenoxy)-propyl]-4,5-dihydro-oxazol-2-ylamine] | 0.0024
C[C@@H](C[C@H]1COC(N)=N1)Oc1ccc(Cl)cc1F [Example 73, (S)-4-[(S)-2-(4-Chloro-2-fluoro-phenoxy)-propyl]-4,5-dihydro-oxazol-2-ylamine] | 0.0021
C[C@@H](C[C@H]1COC(N)=N1)Oc1ccc(F)cc1F [Example 74, (S)-4-[(S)-2-(2,4-Difluoro-phenoxy)-propyl]-4,5-dihydro-oxazol-2-ylamine] | 0.004
C[C@@H](C[C@H]1COC(N)=N1)Oc1ccc(Cl)c(Cl)c1 [Example 75, (S)-4-[(S)-2-(3,4-Dichloro-phenoxy)-propyl]-4,5-dihydro-oxazol-2-ylamine] | 0.001
C[C@@H](C[C@H]1COC(N)=N1)Oc1ccc(Oc2ccccc2)cc1 [Example 79, (S)-4-[(S)-2-(4-Phenoxy-phenoxy)-propyl]-4,5-dihydro-oxazol-2-ylamine] | 0.0086
C[C@@H](C[C@H]1COC(N)=N1)Oc1ccccc1 [Example 81] | 0.0064
C[C@H](C[C@H]1COC(N)=N1)Oc1cccc(Cl)c1 [Example 84, (S)-4-[(R)-2-(3-Chloro-phenoxy)-propyl]-4,5-dihydro-oxazol-2-ylamine] | 0.0076
C[C@H](C[C@H]1COC(N)=N1)Oc1ccc(F)c(Cl)c1 [Example 85, (S)-4-[(R)-2-(3-Chloro-4-fluoro-phenoxy)-propyl]-4,5-dihydro-oxazol-2-ylamine] | 0.0059
NC1=N[C@@H](CCOc2ccc(C(F)(F)F)cc2)CO1 [Example 88, (S)-4-[2-(4-Trifluoromethyl-phenoxy)-ethyl]-4,5-dihydro-oxazol-2-ylamine] | 0.0048
NC1=N[C@@H](CCC2(c3ccc(F)cc3F)CC2)CO1 [Example 89, (S)-4-{2-[1-(2,4-Difluoro-phenyl)-cyclopropyl]-ethyl}-4,5-dihydro-oxazol-2-ylamine] | 0.0059

SMILES | Ki [µM]
CC(CCc1ccccc1)[C@H]1COC(N)=N1 (stereo partly drawn) [Example 90, (4S)-4-(1-Methyl-3-phenyl-propyl)-4,5-dihydro-oxazol-2-ylamine] | 0.008
NC1=N[C@@H](CCC2(c3ccc(F)c(Cl)c3)CC2)CO1 [Example 91, (S)-4-{2-[1-(3-Chloro-4-fluoro-phenyl)-cyclopropyl]-ethyl}-4,5-dihydro-oxazol-2-ylamine] | 0.0006
C[C@H](C[C@H]1COC(N)=N1)Oc1ccc(Cl)c(Cl)c1 [Example 96, (S)-4-[(R)-2-(3,4-Dichloro-phenoxy)-propyl]-4,5-dihydro-oxazol-2-ylamine] | 0.0062
CC[C@@H](C[C@H]1COC(N)=N1)Oc1ccc(Cl)cc1 [Example 107, (S)-4-[(S)-2-(4-Chloro-phenoxy)-butyl]-4,5-dihydro-oxazol-2-ylamine] | 0.001
NC1=N[C@@H](CCC2(c3ccc(F)c(F)c3)CC2)CO1 [Example 108, (S)-4-{2-[1-(3,4-Difluoro-phenyl)-cyclopropyl]-ethyl}-4,5-dihydro-oxazol-2-ylamine] | 0.0014
CC[C@@H](C[C@H]1COC(N)=N1)Oc1ccccc1 [Example 109, (S)-4-((S)-2-Phenoxy-butyl)-4,5-dihydro-oxazol-2-ylamine] | 0.0016
NC1=N[C@@H](CCC2(c3ccc(Cl)cc3)CCC2)CO1 [Example 110, (S)-4-{2-[1-(4-Chloro-phenyl)-cyclobutyl]-ethyl}-4,5-dihydro-oxazol-2-ylamine] | 0.0059
CC[C@@H](C[C@H]1COC(N)=N1)Oc1ccc(Br)cc1 [Example 111, (S)-4-[(S)-2-(4-Bromo-phenoxy)-butyl]-4,5-dihydro-oxazol-2-ylamine] | 0.001
CC[C@@H](C[C@H]1COC(N)=N1)Oc1cccc(Cl)c1 [Example 112] | 0.0012
CC[C@@H](C[C@H]1COC(N)=N1)Oc1ccc(Cl)c(F)c1 [Example 113, (S)-4-[(S)-2-(4-Chloro-3-fluoro-phenoxy)-butyl]-4,5-dihydro-oxazol-2-ylamine] | 0.0037
CC[C@@H](C[C@H]1COC(N)=N1)Oc1ccc(F)cc1F [Example 114, (S)-4-[(S)-2-(2,4-Difluoro-phenoxy)-butyl]-4,5-dihydro-oxazol-2-ylamine] | 0.0019
C[C@@H](CC[C@H]1COC(N)=N1)c1ccc(F)cc1 [Example 115, (S)-4-[(S)-3-(4-Fluoro-phenyl)-butyl]-4,5-dihydro-oxazol-2-ylamine] | 0.0031
C[C@H](CC[C@H]1COC(N)=N1)c1ccc(F)cc1 [Example 116, (S)-4-[(R)-3-(4-Fluoro-phenyl)-butyl]-4,5-dihydro-oxazol-2-ylamine] | 0.0011
CC[C@@H](C[C@H]1COC(N)=N1)Oc1ccc(F)cc1 [Example 117, (S)-4-[(S)-2-(4-Fluoro-phenoxy)-butyl]-4,5-dihydro-oxazol-2-ylamine] | 0.0032
CC[C@@H](C[C@H]1COC(N)=N1)Oc1ccc(F)c(F)c1 [Example 119, (S)-4-[(S)-2-(3,4-Difluoro-phenoxy)-butyl]-4,5-dihydro-oxazol-2-ylamine] | 0.0017
CC[C@@H](C[C@H]1COC(N)=N1)Oc1ccc(F)c(Cl)c1 [Example 120, (S)-4-[(S)-2-(3-Chloro-4-fluoro-phenoxy)-butyl]-4,5-dihydro-oxazol-2-ylamine] | 0.0014
CC[C@@H](C[C@H]1COC(N)=N1)Oc1ccc(C(F)(F)F)cc1 [Example 121, (S)-4-[(S)-2-(4-Trifluoromethyl-phenoxy)-butyl]-4,5-dihydro-oxazol-2-ylamine] | 0.0038
CC[C@@H](C[C@H]1COC(N)=N1)Oc1ccc(Cl)c(Cl)c1 [Example 122, (S)-4-[(S)-2-(3,4-Dichloro-phenoxy)-butyl]-4,5-dihydro-oxazol-2-ylamine] | 0.0007
